# Target: Induced myeloid leukemia cell differentiation protein Mcl-1 (Homo sapiens, UniProt Q07820)
# Experiment: Bcl-2 and Bcl-xL Inhibition Assay
# Protocol: Fluorescence polarization values were measured using the Infinite M-1000 plate reader (Tecan U.S., Research Triangle Park, N.C.) in Microfluor 1 96-well, black, round-bottom plates (Thermo Scientific). […] Plates were mixed and incubated at room temperature for 1 hour with gentle shaking to assure equilibrium. […] Equilibrium dissociation constants (Kd) were then calculated by fitting the sigmoidal dose-dependent FP increases as a function of protein concentrations using Graphpad Prism 5.0 software (Graphpad Software, San Diego, Calif.).
# Sequence of Induced myeloid leukemia cell differentiation protein Mcl-1 (Q07820 whole entry): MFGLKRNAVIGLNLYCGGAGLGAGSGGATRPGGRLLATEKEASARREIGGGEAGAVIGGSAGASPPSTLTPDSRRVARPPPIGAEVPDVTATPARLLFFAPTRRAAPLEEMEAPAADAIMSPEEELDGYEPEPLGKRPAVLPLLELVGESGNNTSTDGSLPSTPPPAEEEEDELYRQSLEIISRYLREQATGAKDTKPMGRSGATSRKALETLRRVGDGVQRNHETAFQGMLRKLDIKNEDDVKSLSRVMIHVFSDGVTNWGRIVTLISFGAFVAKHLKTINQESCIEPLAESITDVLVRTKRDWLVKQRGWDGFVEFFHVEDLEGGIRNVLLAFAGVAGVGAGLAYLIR
compound,measurement,value
"O=C(NS(=O)(=O)c1ccc(NC[C@@H]2COCCO2)c([N+](=O)[O-])c1)c1ccc(N2CCN(CC3=C(c4ccc(Cl)cc4)CC4(CCC4)CC3)CC2)cc1Oc1cnc2[nH]ccc2c1 [US11718613, Compound 13]",IC50,> 5 µM
